# Like-named read-outs stand apart in the source and are kept apart here.
# What was measured:
# SW-620 (Colon cancer) = assay: NCI-60 screen (SRB, 48 h); settings: Homo sapiens
# ACHN (Renal cancer) = assay: NCI-60 screen (SRB, 48 h); settings: Homo sapiens
# [1] = test system: NCI-H460 (NSC lung cancer); assay: NCI-60 screen (SRB, 48 h); settings: Homo sapiens
# DU-145 (Prostate cancer) = assay: NCI-60 screen (SRB, 48 h); settings: Homo sapiens
# UACC-62 (Melanoma) = assay: NCI-60 screen (SRB, 48 h); settings: Homo sapiens
# SK-MEL-2 (Melanoma) = assay: NCI-60 screen (SRB, 48 h); settings: Homo sapiens
# SNB-75 (CNS cancer) = assay: NCI-60 screen (SRB, 48 h); settings: Homo sapiens
# [2] = test system: NCI-H226 (NSC lung cancer); assay: NCI-60 screen (SRB, 48 h); settings: Homo sapiens
# Breast cancer subpanel = assay: NCI-60 screen, subpanel; settings: Homo sapiens
# Renal Cancer subpanel = assay: NCI-60 screen, subpanel; settings: Homo sapiens
# [3] = test system: NCI-H322M (NSC lung cancer); assay: NCI-60 screen (SRB, 48 h); settings: Homo sapiens
# A498 (Renal cancer) = assay: NCI-60 screen (SRB, 48 h); settings: Homo sapiens
# MCF7 (Breast cancer) = assay: NCI-60 screen (SRB, 48 h); settings: Homo sapiens
# HOP-62 (NSC lung cancer) = assay: NCI-60 screen (SRB, 48 h); settings: Homo sapiens
# SK-OV-3 (Ovarian cancer) = assay: NCI-60 screen (SRB, 48 h); settings: Homo sapiens
# UO-31 (Renal cancer) = assay: NCI-60 screen (SRB, 48 h); settings: Homo sapiens
# HCC-2998 (Colon cancer) = assay: NCI-60 screen (SRB, 48 h); settings: Homo sapiens
# RXF 393 (Renal cancer) = assay: NCI-60 screen (SRB, 48 h); settings: Homo sapiens
# [4] = test system: panel of approximately 60 cancer cell lines; assay: NCI-60 screen (SRB, 48 h), full panel
# NSC lung cancer subpanel = assay: NCI-60 screen, subpanel; settings: Homo sapiens
# PC-3 (Prostate cancer) = assay: NCI-60 screen (SRB, 48 h); settings: Homo sapiens
# Ovarian Cancer subpanel = assay: NCI-60 screen, subpanel; settings: Homo sapiens
# Melanoma subpanel = assay: NCI-60 screen, subpanel; settings: Homo sapiens
# OVCAR-3 (Ovarian cancer) = assay: cells; settings: Homo sapiens
# LOX IMVI (Melanoma) = assay: NCI-60 screen (SRB, 48 h); format: cell-based; settings: Homo sapiens
# COLO 205 (Colon cancer) = assay: NCI-60 screen (SRB, 48 h); settings: Homo sapiens
# M14 (Melanoma) = assay: NCI-60 screen (SRB, 48 h); settings: Homo sapiens
# BT-549 (Breast cancer) = assay: NCI-60 screen (SRB, 48 h); format: cell-based; settings: Homo sapiens
compound,measurement,setting,value
Cc1ccc(S(=O)(=O)OC[C@@]2(C)CC[C@]3(C)CC[C@]4(C)C(=C3C2)C=C[C@@H]2[C@@]3(C)CCCNC(C)(C)[C@@H]3CC[C@]24C)cc1 [Compound 16],GI50,SW-620 (Colon cancer); SW-620,1.78 µM
same,IC (TGI),"SW-620 (Colon cancer); SW-620, 48 h, read-out: TGI",3.54 µM
same,CC50,"SW-620 (Colon cancer); SW-620, read-out: LC50",7.04 µM
same,GI50,ACHN (Renal cancer),1.72 µM
same,IC (TGI),"ACHN (Renal cancer); 48 h, read-out: TGI",3.1 µM
same,CC50,ACHN (Renal cancer); read-out: LC50,5.5 µM
same,GI50,[1]; NCI-H460,1.85 µM
same,IC (TGI),"[1]; NCI-H460, 48 h, read-out: TGI",3.5 µM
same,GI50,DU-145 (Prostate cancer); DU-145,1.81 µM
same,IC (TGI),"DU-145 (Prostate cancer); DU-145, 48 h, read-out: TGI",3.4 µM
same,CC50,"DU-145 (Prostate cancer); DU-145, read-out: LC50",6.39 µM
same,GI50,UACC-62 (Melanoma); UACC-62,1.84 µM
same,IC (TGI),"UACC-62 (Melanoma); UACC-62, 48 h, read-out: TGI",3.39 µM
same,GI50,SK-MEL-2 (Melanoma); SK-MEL-2,1.88 µM
same,IC (TGI),"SK-MEL-2 (Melanoma); SK-MEL-2, 48 h, read-out: TGI",3.52 µM
same,CC50,"SK-MEL-2 (Melanoma); SK-MEL-2, read-out: LC50",6.58 µM
same,GI50,SNB-75 (CNS cancer); SNB-75,1.61 µM
same,IC (TGI),"SNB-75 (CNS cancer); SNB-75, 48 h, read-out: TGI",3.1 µM
same,CC50,"SNB-75 (CNS cancer); SNB-75, read-out: LC50",5.97 µM
same,GI50,[2]; NCI-H226,1.66 µM
same,IC (TGI),"[2]; NCI-H226, 48 h, read-out: TGI",3.47 µM
same,IC (TGI),"Breast cancer subpanel; 48 h, read-out: TGI MG_MID",3.5 µM
same,GI50,Breast cancer subpanel; read-out: GI50 MG_MID,1.67 µM
same,CC50,Breast cancer subpanel; read-out: LC50 MG_MID,7.57 µM
same,IC (TGI),"Renal Cancer subpanel; 48 h, read-out: TGI MG_MID",3.19 µM
same,GI50,Renal Cancer subpanel; read-out: GI50 MG_MID,1.67 µM
same,CC50,Renal Cancer subpanel; read-out: LC50 MG_MID,5.92 µM
same,GI50,[3],1.62 µM
same,IC (TGI),"[3]; 48 h, read-out: TGI",3.01 µM
same,CC50,[3]; read-out: LC50,5.62 µM
same,GI50,A498 (Renal cancer); A498,1.71 µM
same,IC (TGI),"A498 (Renal cancer); A498, 48 h, read-out: TGI",3.13 µM
same,CC50,"A498 (Renal cancer); A498, read-out: LC50",5.74 µM
same,GI50,MCF7 (Breast cancer); MCF7,1.51 µM
same,IC (TGI),"MCF7 (Breast cancer); MCF7, 48 h, read-out: TGI",3.18 µM
same,GI50,HOP-62 (NSC lung cancer); HOP-62,1.84 µM
same,IC (TGI),"HOP-62 (NSC lung cancer); HOP-62, 48 h, read-out: TGI",3.59 µM
same,GI50,SK-OV-3 (Ovarian cancer); SK-OV-3,1.79 µM
same,IC (TGI),"SK-OV-3 (Ovarian cancer); SK-OV-3, 48 h, read-out: TGI",3.25 µM
same,CC50,"SK-OV-3 (Ovarian cancer); SK-OV-3, read-out: LC50",5.91 µM
same,GI50,UO-31 (Renal cancer); UO-31,1.46 µM
same,IC (TGI),"UO-31 (Renal cancer); UO-31, 48 h, read-out: TGI",2.85 µM
same,CC50,"UO-31 (Renal cancer); UO-31, read-out: LC50",5.59 µM
same,GI50,HCC-2998 (Colon cancer); HCC 2998,1.58 µM
same,IC (TGI),"HCC-2998 (Colon cancer); HCC 2998, 48 h, read-out: TGI",3.18 µM
same,GI50,RXF 393 (Renal cancer); RXF 393,1.35 µM
same,IC (TGI),"RXF 393 (Renal cancer); RXF 393, 48 h, read-out: TGI",2.86 µM
same,CC50,"RXF 393 (Renal cancer); RXF 393, read-out: LC50",6.05 µM
same,Positive Cytostatic Effect (cell lines with percent growth 0 to 50 / total),[4]; 1 dose 10 µM,12/60
same,Positive Cytotoxic Effect (cell lines with percent growth < 0 / total),[4]; 1 dose 10 µM,31/60
same,number of cancer cell lines the compound was active against,[4]; 1 dose 10 µM,40 cell lines
same,activity at 10 µM,"[4]; Homo sapiens, 48 h, read-out: Mean Growth, %",-0.81%
same,activity at 10 µM,"[4]; Homo sapiens, 48 h, read-out: Range of Growth, %",-99.2 to 104%
same,IC (TGI),"[4]; Homo sapiens, 48 h, read-out: TGI MG_MID60, average over all cell lines",3.52 µM
same,GI50,"[4]; Homo sapiens, read-out: GI50 MG_MID60",1.72 µM
same,GI50,"[4]; Homo sapiens, read-out: GI50 against all human tumor cell lines",< 3 µM
same,GI50,"[4]; Homo sapiens, read-out: GI50 against the most sensitive cell lines",0.2 to 0.94 µM
same,IC (TGI),"NSC lung cancer subpanel; 48 h, read-out: TGI MG_MID",3.36 µM
same,GI50,NSC lung cancer subpanel; read-out: GI50 MG_MID,1.72 µM
same,CC50,NSC lung cancer subpanel; read-out: LC50 MG_MID,6.23 µM
same,GI50,PC-3 (Prostate cancer); PC-3,1.53 µM
same,IC (TGI),"PC-3 (Prostate cancer); PC-3, 48 h, read-out: TGI",2.98 µM
same,CC50,"PC-3 (Prostate cancer); PC-3, read-out: LC50",5.82 µM
same,IC (TGI),"Ovarian Cancer subpanel; 48 h, read-out: TGI MG_MID",3.68 µM
same,GI50,Ovarian Cancer subpanel; read-out: GI50 MG_MID,1.86 µM
same,CC50,Ovarian Cancer subpanel; read-out: LC50 MG_MID,29.4 µM
same,IC (TGI),"Melanoma subpanel; 48 h, read-out: TGI MG_MID",3.36 µM
same,GI50,Melanoma subpanel; read-out: GI50 MG_MID,1.77 µM
same,CC50,Melanoma subpanel; read-out: LC50 MG_MID,6.16 µM
same,GI50,OVCAR-3 (Ovarian cancer); OVCAR-3,1.88 µM
same,IC (TGI),"OVCAR-3 (Ovarian cancer); OVCAR-3, 48 h, read-out: TGI",3.56 µM
same,IC (TGI),LOX IMVI (Melanoma); 48 h,3.02 µM
same,activity at 10 µM,"LOX IMVI (Melanoma); 48 h, 1 dose 10 µM, read-out: Growth % of the Most Sensitive Cell Lines",-99.2%
same,GI50,LOX IMVI (Melanoma); read-out: GI50,1.63 µM
same,GI50,COLO 205 (Colon cancer); COLO 205,1.62 µM
same,IC (TGI),"COLO 205 (Colon cancer); COLO 205, 48 h, read-out: TGI",3.26 µM
same,GI50,M14 (Melanoma); M14,1.8 µM
same,IC (TGI),"M14 (Melanoma); M14, 48 h, read-out: TGI",3.62 µM
same,GI50,BT-549 (Breast cancer); BT-549,1.48 µM
same,IC (TGI),"BT-549 (Breast cancer); BT-549, 48 h",3.14 µM

# Reference: article PMC7914897, “Cytotoxic Potential of a-Azepano- and 3-Amino-3,4-SeCo-Triterpenoids” (International Journal of Molecular Sciences, 2021)
